The record followed here is the OligoGym collection.

HELM strings list units from the 5' end as sugar, base in round brackets, then linkage (d deoxyribose, r ribose, m 2'-O-methyl, p phosphodiester). Strings are as the collection lists them, not checked against the first reports. ss, as = sense and antisense strand; [lna] = locked nucleic acid (LNA); [hna] = hexitol nucleic acid; [fl2r] = 2'-fluoro
Note: test system not given here.

The conditions of the data set: siRNA.
Substance “RNA1{[fl2r](G)p.r(C)p.[fl2r](C)p.r(U)p.[fl2r](C)p.r(U)p.[fl2r](C)p.r(U)p.[fl2r](A)p.r(U)p.[fl2r](C)p.r(C)p.[fl2r](U)p.r(U)p.[fl2r](A)p.r(G)p.[fl2r](C)p.r(U)p.r(U)p.r(T)p.r(T)}|RNA2{r(A)p.r(A)p.r(G)p.r(C)p.r(U)p.r(A)p.[fl2r](A)p.r(G)p.r(G)p.r(A)p.r(U)p.[fl2r](A)p.r(G)p.r(A)p.r(G)p.r(A)p.r(G)p.r(G)p.r(C)p.r(T)p.r(T)}$$$RNA1{StrandType:ss}|RNA2{StrandType:as}$” yielded a target mRNA knockdown of 34%.

For the substance “RNA1{r(C)p.r(U)p.r(C)p.m(C)p.r(C)p.m(C)p.r(A)p.r(G)p.r(U)p.m(C)p.r(U)p.r(C)p.r(U)p.r(C)p.r(U)p.m(U)p.r(A)p.r(A)p.r(A)p.r(T)p.r(T)}|RNA2{r(U)p.r(U)p.m(U)p.r(A)p.r(A)p.r(G)p.r(A)p.r(G)p.r(A)p.r(G)p.r(A)p.r(C)p.m(U)p.r(G)p.r(G)p.r(G)p.r(G)p.r(A)p.r(G)p.r(T)p.r(T)}$$$RNA1{StrandType:ss}|RNA2{StrandType:as}$”, the target mRNA knockdown is 68%.

In turn, “RNA1{r(A)p.r(U)p.r(C)p.r(G)p.r(U)p.r(C)p.r(G)p.r(U)p.m(C)p.r(A)p.r(G)p.r(G)p.r(G)p.m(U)p.r(A)p.r(A)p.r(G)p.r(G)p.r(U)p.r(T)p.r(T)}|RNA2{r(A)p.r(C)p.r(C)p.r(U)p.m(U)p.r(A)p.r(C)p.r(C)p.r(C)p.m(U)p.r(G)p.r(A)p.r(C)p.r(G)p.r(A)p.r(C)p.r(G)p.r(A)p.r(U)p.r(T)p.r(T)}$$$RNA1{StrandType:ss}|RNA2{StrandType:as}$” showed a target mRNA knockdown of 47%.

Substance “RNA1{r(G)p.r(A)p.r(C)p.r(G)p.r(U)p.r(A)p.r(A)p.r(A)p.r(C)p.r(G)p.r(G)p.r(C)p.r(C)p.r(A)p.r(C)p.r(A)p.r(A)p.r(G)p.[hna](U)p.[hna](U)p.r(C)}|RNA2{r(A)p.r(C)p.[lna](T)p.r(U)p.r(G)p.[lna](T)p.r(G)p.r(G)p.r(C)p.r(C)p.r(G)p.r(U)p.r(U)p.[lna](T)p.r(A)p.r(C)p.r(G)p.[lna](T)p.r(C)p.[lna](G)p.[lna](C)}$$$RNA1{StrandType:ss}|RNA2{StrandType:as}$” returned a target mRNA knockdown of 13.3%.

The substance “RNA1{r(G)p.[hna](A)p.r(C)p.r(G)p.r(U)p.r(A)p.r(A)p.[hna](A)p.r(C)p.r(G)p.r(G)p.r(C)p.r(C)p.[hna](A)p.r(C)p.r(A)p.[hna](A)p.r(G)p.r(U)p.r(U)p.r(C)}|RNA2{r(A)p.m(C)p.r(U)p.r(U)p.r(G)p.r(U)p.r(G)p.r(G)p.r(C)p.r(C)p.r(G)p.r(U)p.r(U)p.r(U)p.r(A)p.r(C)p.r(G)p.r(U)p.r(C)p.r(G)p.r(C)}$$$RNA1{StrandType:ss}|RNA2{StrandType:as}$” came in with a target mRNA knockdown of 54.2%.

On to “RNA1{r(A)p.r(G)p.r(C)p.m(C)p.r(A)p.r(C)p.r(A)p.r(U)p.r(U)p.r(U)p.r(C)p.r(U)p.m(A)p.r(G)p.r(G)p.r(A)p.r(G)p.r(A)p.r(U)p.r(T)p.r(T)}|RNA2{r(A)p.r(U)p.r(C)p.r(U)p.r(C)p.r(C)p.r(U)p.r(A)p.r(G)p.r(A)p.r(A)p.r(A)p.m(U)p.r(G)p.r(U)p.r(G)p.r(G)p.r(C)p.r(U)p.r(T)p.r(T)}$$$RNA1{StrandType:ss}|RNA2{StrandType:as}$”, for which the target mRNA knockdown was determined as 29%.

“RNA1{r(U)p.r(G)p.r(A)p.r(A)p.r(C)p.r(G)p.r(U)p.m(C)p.r(A)p.r(C)p.r(C)p.r(G)p.r(A)p.r(G)p.r(G)p.r(A)p.r(G)p.r(A)p.r(A)p.r(T)p.r(T)}|RNA2{r(U)p.r(U)p.r(C)p.r(U)p.r(C)p.r(C)p.r(U)p.r(C)p.r(G)p.r(G)p.r(U)p.r(G)p.r(A)p.r(C)p.r(G)p.r(U)p.r(U)p.m(C)p.r(A)p.r(T)p.r(T)}$$$RNA1{StrandType:ss}|RNA2{StrandType:as}$” came in with a target mRNA knockdown of 85%.
